Measurements as given in patent US9156838B2, “Fused heterocyclic compound” (Sumitomo Chemical Company, Limited, priority 2012, dated 2015).

Test system: Blattella germanica
Experiment: Test Example 9: treated filter paper with sucrose bait, Blattella germanica male imagoes
Assay type: in vivo
Conditions: 500 ppm, 0.7 ml on filter paper, after 6 days
Experimental: The formulations of Compounds 3 and 10 as obtained in Formulation Example 5 were diluted with water, so as to have a concentration of the active ingredient of 500 ppm, to prepare a test drug solution.
A filter paper having a diameter of 5.5 cm was spread on the bottom of a polyethylene cup having the same diameter and 0.7 ml of the test drug solution was added dropwise onto the filter paper, and 30 mg of sucrose was uniformly placed as bait. Into the polyethylene cup, 2 male imagoes of Blattella germanica were released, and the cup was sealed with a lid. After 6 days, the life and death of Blattella germanica was examined, and the death rate was calculated.

Row | SMILES | death rate
1 | CCS(=O)(=O)c1cc(SC(F)(F)F)ccc1-c1nc2cc(C(F)(F)C(F)(F)F)cnc2n1C [Compound 10, 2-(2-ethylsulfonyl-4-trifluoromethylsulfanylphenyl)3-methyl-6-pentafluoroethyl-3H-imidazo[4,5-b]pyridine] | 100%
2 | CCS(=O)(=O)c1cc([S+]([O-])C(F)(F)F)ccc1-c1nc2cc(C(F)(F)F)cnc2n1C (centres unmarked) [Compound 3] | 100%
